Data reported in patent US11058688B2, “Imidazopiperazine inhibitors of transcription activating proteins” (Board of Regents, The University of Texas System, priority 2018, dated 2021).

What was measured:
BRD4(49-170) bromodomain = BRD4(49-170) bromodomain (Homo sapiens (Human), UniProt O60885); assay: BRD4 AlphaScreen Assay; details: binding to biotin-H4(1-21) Ac-K5/8/12/16 peptide
Experimental: (§1) Specific binding of the CBP or BRD4 bromodomain to the acetylated peptide derived from the H4 histone substrate (tetra acetylated H4(1-21) Ac-K5/8/12/16) was measured in absence or presence of inhibitors.
(§2) The standard dose response curves were fitted by Genedata Screener software using the variable-slope model: Signal=Signalnegative control+(SignalDMSO control−Signalnegative control)/(1+(IC50/Dose)^Hill slope).
(§3) Only Signal and Dose in the equation were treated as known values.

[1] = biological target: GST-CBP(1081-1197) bromodomain (Homo sapiens (Human), UniProt Q92793); assay: CBP AlphaScreen Assay; details: binding to biotin-H4(1-21) Ac-K5/8/12/16 peptide
Sequence of GST-CBP(1081-1197) bromodomain (Q92793 1081-1197): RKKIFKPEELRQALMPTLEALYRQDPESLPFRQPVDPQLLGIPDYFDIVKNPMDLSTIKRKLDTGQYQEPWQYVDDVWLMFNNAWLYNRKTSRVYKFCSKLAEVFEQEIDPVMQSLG
Experimental: as §1, §2, §3

SMILES | IC50 (BRD4(49-170) bromodomain) | IC50 [1]
CC(=O)N1CCn2c(C3CC3)nc(N3CCCc4cc(-c5ccncc5)ccc43)c2C1 [Example 114, 1-(3-cyclopropyl-1-(6-(pyridin-4-yl)-3,4-dihydroquinolin-1(2H)-yl)-5,6-dihydroimidazo[1,5-a]pyrazin-7(8H)-yl)ethan-1-one] | > 25000 nM | 615 nM
CNC(=O)N1CCn2c(C3CC(F)(F)C3)nc(-c3cccc4nc(-c5cnn(C)c5)c(C(F)(F)F)cc34)c2C1 [Example 20, 3-(3,3-Difluorocyclobutyl)-N-methyl-1-(2-(1-methyl-1H-pyrazol-4-yl)-3-(trifluoromethyl)quinolin-5-yl)-5,6-dihydroimidazo[1,5-a]pyrazine-7(8H)-carboxamide] | 25000 nM | 18 nM
CC(=O)N1CCn2c(C3CCOCC3)nc(-c3ccc4c(c3)c(-c3cnn(C)c3)nn4C)c2C1 [Example 104, 1-(1-(1-methyl-3-(1-methyl-1H-pyrazol-4-yl)-1H-indazol-5-yl)-3-(tetrahydro-2H-pyran-4-yl)-5,6-dihydroimidazo[1,5-a]pyrazin-7(8H)-yl)ethan-1-one] | 3730 nM | 107 nM
CNC(=O)N1CCn2c(C3CC(F)(F)C3)nc(-c3cccc4cc(-c5cnc(C)s5)ncc34)c2C1 [Example 96, 3-(3,3-difluorocyclobutyl)-N-methyl-1-(3-(2-methylthiazol-5-yl)isoquinolin-8-yl)-5,6-dihydroimidazo[1,5-a]pyrazine-7(8H)-carboxamide] | 5540 nM | 2 nM
CNC(=O)N1CCn2c(C3CC3)nc(N3CCCc4nc(-c5cnn(C)c5)c(C(F)(F)F)cc43)c2C1 [Example 33, 3-Cyclopropyl-N-methyl-1-(6-(1-methyl-1H-pyrazol-4-yl)-7-(trifluoromethyl)-3,4-dihydro-1,5-naphthyridin-1(2H)-yl)-5,6-dihydroimidazo[1,5-a]pyrazine-7(8H)-carboxamide] | > 10000 nM | 40 nM
CNC(=O)N1CCn2c(C3CC3)nc(-c3cccc4nc(-c5cnc(C)s5)c(C#N)cc34)c2C1 [Example 100, 1-(3-cyano-2-(2-methylthiazol-5-yl)quinolin-5-yl)-3-cyclopropyl-N-methyl-5,6-dihydroimidazo[1,5-a]pyrazine-7(8H)-carboxamide] | 7950 nM | 4 nM
CNC(=O)c1ccc(-c2cc3cccc(-c4nc(C5CC5)n5c4CN(C(=O)NC)CC5)c3cn2)cn1 [Example 17, 3-Cyclopropyl-N-methyl-1-(3-(6-(methylcarbamoyl)pyridin-3-yl)isoquinolin-8-yl)-5,6-dihydroimidazo[1,5-a]pyrazine-7(8H)-carboxamide] | 5090 nM | 1 nM
CNC(=O)N1CCn2c(C3CC3)nc(-c3cccc4nc(-c5cnn(C)c5)c(C(F)F)cc34)c2C1 [Example 34, 3-Cyclopropyl-1-(3-(difluoromethyl)-2-(1-methyl-1H-pyrazol-4-yl)quinolin-5-yl)-N-methyl-5,6-dihydroimidazo[1,5-a]pyrazine-7(8H)-carboxamide] | 17300 nM | 37 nM
CNC(=O)N1CCn2c(C3CC3(F)F)nc(-c3cccc4nc(-c5cnn(C)c5)c(C(F)F)cc34)c2C1 (stereo not shown) [Example 60, 3-(2,2-difluorocyclopropyl)-1-(3-(difluoromethyl)-2-(1-methyl-1H-pyrazol-4-yl)quinolin-5-yl)-N-methyl-5,6-dihydroimidazo[1,5-a]pyrazine-7(8H)-carboxamide] | 15800 nM | 18 nM
CNC(=O)c1ccc(-c2nc3cccc(-c4nc(C5CC5)n5c4CN(C(=O)NC)CC5)c3cc2C#N)cn1 [Example 99, 1-(3-cyano-2-(6-(methylcarbamoyl)pyridin-3-yl)quinolin-5-yl)-3-cyclopropyl-N-methyl-5,6-dihydroimidazo[1,5-a]pyrazine-7(8H)-carboxamide] | 8710 nM | 11 nM
CNC(=O)N1CCn2c(C3CCC(F)(F)CC3)nc(-c3cccc4nc(-c5cnn(C)c5)c(C(F)F)cc34)c2C1 [Example 59, 3-(4,4-difluorocyclohexyl)-1-(3-(difluoromethyl)-2-(1-methyl-1H-pyrazol-4-yl)quinolin-5-yl)-N-methyl-5,6-dihydroimidazo[1,5-a]pyrazine-7(8H)-carboxamide] | 19000 nM | 5 nM
CC(=O)N1CCn2c(C3CC3)nc(N3CCCc4cc(-c5cnn(CC6CC6)c5)ccc43)c2C1 [Example 115, 1-(3-cyclopropyl-1-(6-(1-(cyclopropylmethyl)-1H-pyrazol-4-yl)-3,4-dihydroquinolin-1(2H)-yl)-5,6-dihydroimidazo[1,5-a]pyrazin-7(8H)-yl)ethan-1-one] | > 25000 nM | 679 nM
CNC(=O)N1CCn2c(C3CC3)nc(-c3ccnc4cc(-c5cnn(C)c5)c(OC(F)(F)F)cc34)c2C1 [Example 2, 3-cyclopropyl-N-methyl-1-(7-(1-methyl-1H-pyrazol-4-yl)-6-(trifluoromethoxy)quinolin-4-yl)-5,6-dihydroimidazo[1,5-a]pyrazine-7(8H)-carboxamide] | 8900 nM | 3 nM
CNC(=O)N1CCn2c(C3CCOCC3)nc(-c3c(F)ccc4cc(-c5ccn(C)n5)ncc34)c2C1 [Example 94, 1-(7-fluoro-3-(1-methyl-1H-pyrazol-3-yl)isoquinolin-8-yl)-N-methyl-3-(tetrahydro-2H-pyran-4-yl)-5,6-dihydroimidazo[1,5-a]pyrazine-7(8H)-carboxamide] | > 25000 nM | 12 nM
CNC(=O)N1CCn2c(C3CC3)nc(-c3c(F)ccc4cc(-c5cn(C)nc5C)ncc34)c2C1 [Example 72, 3-cyclopropyl-1-(3-(1,3-dimethyl-1H-pyrazol-4-yl)-7-fluoroisoquinolin-8-yl)-N-methyl-5,6-dihydroimidazo[1,5-a]pyrazine-7(8H)-carboxamide] | 17100 nM | 54 nM
CC(=O)N1CCn2c(C3CC3)nc(-c3cc4c(-c5cnn(C)c5)nn(C)c4cc3F)c2C1 [Example 28, 1-(3-Cyclopropyl-1-(6-fluoro-1-methyl-3-(1-methyl-1H-pyrazol-4-yl)-1H-indazol-5-yl)-5,6-dihydroimidazo[1,5-a]pyrazin-7(8H)-yl)ethan-1-one] | 18600 nM | 33 nM
CNC(=O)N1CCn2c(C3CCOCC3)nc(-c3cccc4cc(C5CCOCC5)ncc34)c2C1 [Example 68, N-methyl-3-(tetrahydro-2H-pyran-4-yl)-1-(3-(tetrahydro-2H-pyran-4-yl)isoquinolin-8-yl)-5,6-dihydroimidazo[1,5-a]pyrazine-7(8H)-carboxamide] | > 25000 nM | 16 nM
CC(=O)N1CCn2c(C3CC3)nc(-c3ccc4c(c3)c(-c3cnn(C)c3)nn4C)c2C1 [Example 44, 1-(3-cyclopropyl-1-(1-methyl-3-(1-methyl-1H-pyrazol-4-yl)-1H-indazol-5-yl)-5,6-dihydroimidazo[1,5-a]pyrazin-7(8H)-yl)ethan-1-one] | 12100 nM | 47 nM
CNC(=O)N1CCn2c(C3CCN(C(C)=O)CC3)nc(-c3ccc4c(c3)c(-c3cnn(C)c3)nn4C)c2C1 [Example 55, 3-(1-acetylpiperidin-4-yl)-N-methyl-1-(1-methyl-3-(1-methyl-1H-pyrazol-4-yl)-1H-indazol-5-yl)-5,6-dihydroimidazo[1,5-a]pyrazine-7(8H)-carboxamide] | > 10000 nM | 18 nM
CNC(=O)N1CCn2c(C3CC(F)(F)C3)nc(-c3c(F)ccc4cc(C5CCOCC5)ncc34)c2C1 [Example 91, 3-(3,3-difluorocyclobutyl)-1-(7-fluoro-3-(tetrahydro-2H-pyran-4-yl)isoquinolin-8-yl)-N-methyl-5,6-dihydroimidazo[1,5-a]pyrazine-7(8H)-carboxamide] | 22400 nM | 48 nM
CNC(=O)N1CCn2c(C3CC(F)(F)C3)nc(-c3cccc4nc(-c5cnn(C)c5)c(C(F)F)cc34)c2C1 [Example 58, 3-(3,3-difluorocyclobutyl)-1-(3-(difluoromethyl)-2-(1-methyl-1H-pyrazol-4-yl)quinolin-5-yl)-N-methyl-5,6-dihydroimidazo[1,5-a]pyrazine-7(8H)-carboxamide] | > 10000 nM | 49 nM
CNC(=O)N1CCn2c(C(C)C)nc(-c3ccc4c(c3)c(-c3cnn(C)c3)nn4C)c2C1 [Example 50, 3-isopropyl-N-methyl-1-(1-methyl-3-(1-methyl-1H-pyrazol-4-yl)-1H-indazol-5-yl)-5,6-dihydroimidazo[1,5-a]pyrazine-7(8H)-carboxamide] | > 10000 nM | 12 nM
CNC(=O)N1CCn2c(C3CCOCC3)nc(-c3cccc4cc(N5CCOCC5)ncc34)c2C1 [Example 63, N-methyl-1-(3-morpholinoisoquinolin-8-yl)-3-(tetrahydro-2H-pyran-4-yl)-5,6-dihydroimidazo[1,5-a]pyrazine-7(8H)-carboxamide] | 23600 nM | 14 nM
CNC(=O)N1CCn2c(C3CCOC3)nc(-c3ccc4c(c3)c(-c3cnn(C)c3)nn4C)c2C1 (stereo not shown) [Example 6, N-Methyl-1-(1-methyl-3-(1-methyl-1H-pyrazol-4-yl)-1H-indazol-5-yl)-3-(tetrahydrofuran-3-yl)-5,6-dihydroimidazo[1,5-a]pyrazine-7(8H)-carboxamide] | 8210 nM | 24 nM
CC(=O)N1CCn2c(C3CCNCC3)nc(-c3ccc4c(c3)c(-c3cnn(C)c3)nn4C)c2C1 [Example 51, 1-(1-(1-methyl-3-(1-methyl-1H-pyrazol-4-yl)-1H-indazol-5-yl)-3-(piperidin-4-yl)-5,6-dihydroimidazo[1,5-a]pyrazin-7(8H)-yl)ethan-1-one] | > 10000 nM | 149 nM
CNC(=O)N1Cc2c(-c3cccc4cc(-c5cnn(C)c5)ncc34)nc(C3CC3)n2CC1C (stereo not shown) [Example 125, 3-cyclopropyl-N,6-dimethyl-1-(3-(1-methyl-1H-pyrazol-4-yl)isoquinolin-8-yl)-5,6-dihydroimidazo[1,5-a]pyrazine-7(8H)-carboxamide] | > 10000 nM | 19 nM
